Experimental data from patent US12145914B2, “Compound having oxadiazole and pharmaceutical composition containing the same” (SK BIOPHARMACEUTICALS CO., LTD., priority 2018, dated 2024).

Test system: focal onset seizures induced by electrostimulation of 44 mA, 6 Hz, 3 sec in ICR mouse
Assay: 6 Hz method for screening anticonvulsants (6 Hz, 44 mA electrostimulation)
Format: in vivo
Conditions: male ICR mice, intraperitoneal (ip), electrostimulation 44 mA, 3 sec to the eye, number of non-seizure animals/number of animals used
Description: The utility of the compounds according to the present invention as an anticonvulsant agent has been investigated by the 6 Hz method, which has been well established as pharmacological screening methods of convulsant agents for focal onset seizures. The procedure of the 6 Hz method for screening anticonvulsant was as follows:
1) Preparation of Experimental Animals
Male ICR mice are purchased from Orient Bio, Inc. of Korea, and are stored and managed according to laboratory animal management standards of the Institutional Animal Care and Use Committee (IACUC) by putting the same in a wire net cage under an environment in which an ambient temperature of 19 to 25° C., 40 to 60% relative humidity and 12 hour periods of light/dark were auto-controlled, and water was freely taken. After stabilization for a week, mice with a body weight of 18 to 23 g were used in the experiment.
2) Evaluation of the Anticonvulsant Effect of a Compound
5% Tetracaine (Sigma) was added to both eyes to provide a local anesthetic effect at 5 to 10 minutes before the period of electrical stimulation at the animal ICR mouse. The compounds to be tested were dissolved in distilled water in which 30% polyethylene glycol 300+5% dimethylsulfoxide+5% Cremophor was dissolved and administered intraperitoneally (ip) to the animal at a dosage volume of 10 mL/kg. Then, electrostimulation of 44 mA, 6 Hz, and 3 sec was applied to the eye to induce focus-generating seizures. After the electrical stimulation, the presence of seizures due to drug effects was confirmed, and the ratio of animals showing no seizures was expressed as a protection rate (the number of non-seizure animals/the number of animals used in experiments=protection rate). […]

Row | SMILES | 6 Hz, 44 mA protection rate
1 | Cc1nnc(CC(OC(N)=O)c2cccc(-c3ccc(F)cc3)c2)o1 (stereo not drawn) [Example 72, [1-[3-(4-fluorophenyl)phenyl]-2-(5-methyl-1,3,4-oxadiazol-2-yl)ethyl] carbamate] | + (0.2 to 0.6 are scored as ‘+’)
2 | Cc1nnc(CC(OC(N)=O)c2cccc(-c3ccc(Cl)cc3)c2)o1 (stereo not drawn) [Example 75, [1-[3-(4-chlorophenyl)phenyl]-2-(5-methyl-1,3,4-oxadiazole-2-yl)ethyl] carbamate] | + (0.2 to 0.6 are scored as ‘+’)
3 | Cc1nnc(CC(OC(N)=O)c2cccc(-c3ccc(OC(F)(F)F)cc3)c2)o1 (stereo not drawn) [Example 78, [1-[3-[4-(trifluoromethoxy)phenyl]phenyl]-2-(5-methyl-1,3,4-oxadiazol-2-yl)ethyl] carbamate] | ++ (0.6 to 0.8 are scored as ‘++’)
4 | Nc1nnc(-c2cccc(Cl)c2Cl)c(N)n1 [Lamotrigine, reference compound] | − (the protection rates 0 to 0.2 are scored as ‘−’)
5 | CC[C@@H](C(N)=O)N1CCCC1=O [Levitiracetam, (S)-α-ethyl-2-oxo-1-pyrrolidine acetamide, reference compound] | − (the protection rates 0 to 0.2 are scored as ‘−’)
6 | CC1(C)O[C@@H]2[C@@H](CO[C@@]3(COS(N)(=O)=O)OC(C)(C)O[C@@H]23)O1 [Topiramate, reference compound] | − (the protection rates 0 to 0.2 are scored as ‘−’)
